From patent publication US11370794B2, “Toll-like receptor antagonist compounds and methods of use” (Dynavax Technologies Corporation, priority 2016, dated 2022)
Read-outs that look alike come from different tables or passages of the source.

Assays:
human TLR8 = biological target: T1, human TLR8 (Homo sapiens, UniProt Q9NR97); assay: Inhibition of human TLR8 in human monocytes (TNF-alpha / IL-1 beta ELISA); type: cell-based; details: for IC50: human monocytes, agonist ORN8L 100 μg/mL, TNF-alpha readout, 24 hours, read-out: Human TLR8 IC50 TNF-a
T1 construct: endogenous in cells; host or cells: primary human monocytes (CD14 microbeads) from buffy coats of healthy donors
T1 sequence (Q9NR97 27-1041): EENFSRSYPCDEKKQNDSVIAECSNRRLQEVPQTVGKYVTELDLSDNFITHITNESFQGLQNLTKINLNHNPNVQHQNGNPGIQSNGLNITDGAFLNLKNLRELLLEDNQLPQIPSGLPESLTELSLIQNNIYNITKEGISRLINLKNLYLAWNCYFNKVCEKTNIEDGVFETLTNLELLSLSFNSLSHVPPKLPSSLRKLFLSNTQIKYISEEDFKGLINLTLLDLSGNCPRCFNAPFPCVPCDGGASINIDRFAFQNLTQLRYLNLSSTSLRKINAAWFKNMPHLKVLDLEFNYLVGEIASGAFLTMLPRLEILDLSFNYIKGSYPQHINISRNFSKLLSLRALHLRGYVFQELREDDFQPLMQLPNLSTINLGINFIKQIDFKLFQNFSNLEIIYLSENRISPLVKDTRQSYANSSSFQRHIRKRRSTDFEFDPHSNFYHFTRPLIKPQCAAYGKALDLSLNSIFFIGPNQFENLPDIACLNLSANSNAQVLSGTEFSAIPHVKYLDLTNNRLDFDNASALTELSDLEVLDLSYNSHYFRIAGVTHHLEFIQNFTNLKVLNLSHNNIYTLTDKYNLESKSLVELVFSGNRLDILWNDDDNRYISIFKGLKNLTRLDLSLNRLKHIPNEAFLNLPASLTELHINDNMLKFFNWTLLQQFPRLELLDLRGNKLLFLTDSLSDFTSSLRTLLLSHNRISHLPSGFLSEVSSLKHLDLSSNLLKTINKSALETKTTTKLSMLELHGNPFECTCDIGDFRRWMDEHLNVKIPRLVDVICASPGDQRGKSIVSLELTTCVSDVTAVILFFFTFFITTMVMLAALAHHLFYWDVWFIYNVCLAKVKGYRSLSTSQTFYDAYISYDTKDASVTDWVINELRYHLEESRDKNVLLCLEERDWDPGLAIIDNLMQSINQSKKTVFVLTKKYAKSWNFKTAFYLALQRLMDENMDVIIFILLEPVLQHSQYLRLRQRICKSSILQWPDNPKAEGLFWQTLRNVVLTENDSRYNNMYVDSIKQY
Method in brief: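 Primary human monocytes from donor buffy coats (~200,000 cells/well) given serially diluted compound, then ORN8L RNA oligonucleotide agonist at 100 μg/mL final. After 24 h at 37 °C, supernatant TNF-alpha and/or IL-1 beta measured by ELISA; IC50 from the concentration-response of cytokine release.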

human TLR9 = biological target: T2, human TLR9 (Homo sapiens, UniProt Q9NR96); assay: Inhibition of human TLR9 in human B cells (IL-6 ELISA); type: cell-based; details: for IC50: human B cells, agonist 1018 ISS 1 μM; for inhibits TLR9-dependent responses (in words): summary statement of the description
T2 construct: endogenous in cells; host or cells: primary human B cells (CD19 microbeads) from buffy coats of healthy donors
T2 sequence (Q9NR96 26-1032): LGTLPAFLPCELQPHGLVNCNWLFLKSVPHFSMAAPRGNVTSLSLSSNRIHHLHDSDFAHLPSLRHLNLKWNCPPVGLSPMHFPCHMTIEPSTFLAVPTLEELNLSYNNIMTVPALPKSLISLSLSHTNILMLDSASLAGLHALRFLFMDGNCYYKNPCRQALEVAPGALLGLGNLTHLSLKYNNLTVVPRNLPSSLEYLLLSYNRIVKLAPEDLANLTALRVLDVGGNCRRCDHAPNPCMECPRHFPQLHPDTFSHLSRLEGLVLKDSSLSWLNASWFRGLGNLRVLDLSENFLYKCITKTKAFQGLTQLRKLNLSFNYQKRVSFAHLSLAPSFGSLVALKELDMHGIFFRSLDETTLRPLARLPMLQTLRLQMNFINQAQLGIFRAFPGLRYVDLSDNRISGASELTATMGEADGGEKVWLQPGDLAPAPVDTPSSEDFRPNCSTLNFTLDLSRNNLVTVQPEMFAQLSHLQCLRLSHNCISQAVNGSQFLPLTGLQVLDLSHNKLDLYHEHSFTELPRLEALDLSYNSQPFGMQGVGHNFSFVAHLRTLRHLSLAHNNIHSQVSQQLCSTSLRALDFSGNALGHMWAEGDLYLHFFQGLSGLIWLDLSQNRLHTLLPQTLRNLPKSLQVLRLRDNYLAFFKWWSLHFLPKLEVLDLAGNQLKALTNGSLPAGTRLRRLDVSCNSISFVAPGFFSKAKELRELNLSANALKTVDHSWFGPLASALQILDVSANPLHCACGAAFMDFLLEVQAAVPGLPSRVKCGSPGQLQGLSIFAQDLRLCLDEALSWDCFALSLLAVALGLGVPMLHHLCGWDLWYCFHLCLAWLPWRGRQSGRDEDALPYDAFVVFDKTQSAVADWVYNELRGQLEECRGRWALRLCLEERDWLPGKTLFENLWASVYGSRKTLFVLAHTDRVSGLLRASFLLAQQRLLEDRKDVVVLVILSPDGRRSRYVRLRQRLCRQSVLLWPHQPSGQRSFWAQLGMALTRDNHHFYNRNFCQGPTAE
Method in brief: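 Primary human B cells (CD19-isolated from donor buffy coats), ~300,000 per well, treated with compound (about 0.01–10 μM, some 0.001–30 μM) then 1 μM CpG oligonucleotide 1018 ISS. After 48 hours at 37° C, supernatant IL-6 measured by ELISA; IC50 from concentration-response of TLR9-dependent activity.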

[1] = IL-6 readout, 48 hours, range about 0.01 to 10 μM, read-out: Human TLR9 IC50
[2] = IL-6, 48 hours, expanded dilution series about 0.001 to 30 μM, read-out: Human TLR9 IC50, expanded dilution series

| SMILES | IC50 (human TLR8) | IC50 (human TLR9; [1]) | IC50 (human TLR9; [2]) | inhibits TLR9-dependent responses (in words) (human TLR9) | inhibits TLR8-dependent responses (in words) (human TLR8; summary statement of the description) |
| --- | --- | --- | --- | --- | --- |
| Cc1ccc(-n2nc3c(N4CCC(C(=O)N5CCC(N(C)C)C5)CC4)nnc(C)c3c2C)cc1 (centres unmarked) [compound 44, (1-(3,4-dimethyl-2-(p-tolyl)-2H-pyrazolo[3,4-d]pyridazin-7-yl)piperidin-4-yl)(3-(dimethylamino)pyrrolidin-1-yl)methanone] | ≥ 20 µM | 0.202 µM | – | – | – |
| Cc1ccc(-n2nc3c(N4CCC(C(=O)N5CCC(CN(C)C)C5)CC4)nnc(C)c3c2C)cc1 (centres unmarked) [compound 45, (1-(3,4-dimethyl-2-(p-tolyl)-2H-pyrazolo[3,4-d]pyridazin-7-yl)piperidin-4-yl)(3-((dimethylamino)methyl)pyrrolidin-1-yl)methanone] | ≥ 20 µM | 0.001 µM | 0.014 µM | inhibit | – |
| CNC(=O)C1CCN(c2nnc(C)c3c(C)n(-c4ccc(C)cc4)nc23)C1 (centres unmarked) [compound 57, 1-(3,4-dimethyl-2-(p-tolyl)-2H-pyrazolo[3,4-d]pyridazin-7-yl)-N-methylpyrrolidine-3-carboxamide] | ≥ 20 µM | 9.37 µM | – | – | – |
| Cc1ccc(-n2nc3c(N4CCCC(C(=O)NCCNc5ccccc5)C4)nnc(C)c3c2C)cc1 (centres unmarked) [compound 58, 1-(3,4-dimethyl-2-(p-tolyl)-2H-pyrazolo[3,4-d]pyridazin-7-yl)-N-(2-(phenylamino)ethyl)piperidine-3-carboxamide] | ≥ 20 µM | 4.82 µM | – | – | – |
| Cc1ccc(-n2nc3c(N4CCC(C(=O)N5CCC(N6CCC6)CC5)CC4)nnc(C)c3c2C)cc1 [compound 65, (4-(azetidin-1-yl)piperidin-1-yl)(1-(3,4-dimethyl-2-(p-tolyl)-2H-pyrazolo[3,4-d]pyridazin-7-yl)piperidin-4-yl)methanone] | 1.85 µM | 0.01 µM | – | – | – |
| Cc1ccc(-n2nc3c(N4CCC(CCC(=O)NC5CN(C)C5)CC4)nnc(C)c3c2C)cc1 [compound 66, 3-(1-(3,4-dimethyl-2-(p-tolyl)-2H-pyrazolo[3,4-d]pyridazin-7-yl)piperidin-4-yl)-N-(1-methylazetidin-3-yl)propanamide] | ≥ 20 µM | 0.182 µM | – | – | – |
| Cc1ccc(-n2nc3c(N4CCC(C(=O)N5CCC(N(C)Cc6ccccc6)CC5)CC4)nnc(C)c3c2C)cc1 [compound 67, (4-(benzyl(methyl)amino)piperidin-1-yl)(1-(3,4-dimethyl-2-(p-tolyl)-2H-pyrazolo[3,4-d]pyridazin-7-yl)piperidin-4-yl)methanone] | 0.48 µM | 0.049 µM | – | inhibit | inhibit |

Other lines, results leading:

| IC50 (human TLR8) | IC50 (human TLR9; [1]) | IC50 (human TLR9; [2]) | inhibits TLR9-dependent responses (in words) (human TLR9) | inhibits TLR8-dependent responses (in words) (human TLR8; summary statement of the description) | SMILES |
| --- | --- | --- | --- | --- | --- |
| ≥ 20 µM | 0.133 µM | – | – | – | Cc1ccc(-n2nc3c(N4CCC(C(=O)NCCCN(C)C)CC4)nncc3c2C)cc1 [compound 42, N-(3-(dimethylamino)propyl)-1-(3-methyl-2-(p-tolyl)-2H-pyrazolo[3,4-d]pyridazin-7-yl)piperidine-4-carboxamide] |
| ≥ 20 µM | 0.001 µM | 0.013 µM | inhibit | – | CCN(CC)C1CCN(C(=O)C2CCN(c3nnc(C)c4c(C)n(-c5ccc(C)cc5)nc34)CC2)CC1 [compound 43, (4-(diethylamino)piperidin-1-yl)(1-(3,4-dimethyl-2-(p-tolyl)-2H-pyrazolo[3,4-d]pyridazin-7-yl)piperidin-4-yl)methanone] |
| ≥ 20 µM | 0.002 µM | 0.01 µM | inhibit | – | Cc1ccc(-n2cc3cnnc(N4CCC(C(=O)NCCN(C)C)CC4)c3n2)cc1 [compound 46, N-(2-(dimethylamino)ethyl)-1-(2-(p-tolyl)-2H-pyrazolo[3,4-d]pyridazin-7-yl)piperidine-4-carboxamide] |
| 2.62 µM | 0.027 µM | – | – | – | Cc1ccc(-n2cc3cnnc(N4CCCC(C(=O)NCCN(C)C)C4)c3n2)cc1 (centres unmarked) [compound 47, N-(2-(dimethylamino)ethyl)-1-(2-(p-tolyl)-2H-pyrazolo[3,4-d]pyridazin-7-yl)piperidine-3-carboxamide] |
| ≥ 20 µM | 10.8 µM | – | – | – | Cc1ccc(-n2nc3c(Cl)nnc(N4CCC(C(=O)NCCCN(C)C)CC4)c3c2C)cc1 [compound 48, 1-(7-chloro-3-methyl-2-(p-tolyl)-2H-pyrazolo[3,4-d]pyridazin-4-yl)-N-(3-(dimethylamino)propyl)piperidine-4-carboxamide] |
| 0.77 µM | 0.006 µM | – | – | – | CCN(CC)C1CCN(C(=O)C2CCN(c3nncc4cn(-c5ccc(C)cc5)nc34)CC2)CC1 [compound 59, (4-(diethylamino)piperidin-1-yl)(1-(2-(p-tolyl)-2H-pyrazolo[3,4-d]pyridazin-7-yl)piperidin-4-yl)methanone] |
| 0.98 µM | 0.002 µM | – | – | – | Cc1ccc(-n2cc3cnnc(N4CCC(C(=O)N5CCC(CN(C)C)C5)CC4)c3n2)cc1 (centres unmarked) [compound 60, (3-((dimethylamino)methyl)pyrrolidin-1-yl)(1-(2-(p-tolyl)-2H-pyrazol[3,4-d]pyridazin-7-yl)piperidin-4-yl)methanone] |
| 4.85 µM | 0.009 µM | – | – | – | Cc1ccc(-n2cc3cnnc(N4CCC(CCC(=O)NCCN(C)C)CC4)c3n2)cc1 [compound 61, N-(2-(dimethylamino)ethyl)-3-(1-(2-(p-tolyl)-2H-pyrazolo[3,4-d]pyridazin-7-yl)piperidin-4-yl)propanamide] |
| 3.84 µM | 0.021 µM | – | – | – | Cc1ccc(-n2cc3cnnc(N4CCC(C(=O)NC5CN(C)C5)CC4)c3n2)cc1 [compound 62, N-(1-methylazetidin-3-yl)-1-(2-(p-tolyl)-2H-pyrazolo[3,4-d]pyridazin-7-yl)piperidine-4-carboxamide] |
| ≥ 20 µM | 5.58 µM | – | – | – | Cc1ccc(-n2nc3c(N4CCC(C(=O)NCCN(C)C)CC4)nnc(C)c3c2C(F)(F)F)cc1 [compound 63, N-(2-(dimethylamino)ethyl)-1-(4-methyl-2-(p-tolyl)-3-(trifluoromethyl)-2H-pyrazolo[3,4-d]pyridazin-7-yl)piperidine-4-carboxamide] |
| ≥ 20 µM | 0.557 µM | – | – | – | Cc1ccc(-n2cc3cnnc(N4CCC(C(=O)NCCN5CCOCC5)CC4)c3n2)cc1 [compound 64, N-(2-morpholinoethyl)-1-(2-(p-tolyl)-2H-pyrazolo[3,4-d]pyridazin-7-yl)piperidine-4-carboxamide] |
